Legend:
IL-12/23 p40 [1] = assay: q-PCR for p40 mRNA in peptidoglycan-activated CD11c+ BMDCs; format: cell-based, mouse; conditions: 20 μg/ml for 1 hour, then 10 μg/ml peptidoglycan for 2, 3 and 4 hours, normalized to GAPDH (FIG. 6)
Protocol: Generation of bone-marrow derived dendritic cells (BMDC's): Bone-marrow was flushed out with cold RPMI-1640 medium from mice femur and tibia. A cell suspension was prepared and erythrocytes were removed using red blood cell (RBC) lysis buffer (Beit Haemek, Israel). Cells were washed in phosphate buffer saline (PBS) (Beit Haemek, Israel), and incubated at 4° C. for 15 minutes in buffer containing PBS and 0.5% bovine serum albumin (BSA) with mouse B220 and CD90 microbeads (Miltenyi biotech, Bergisch Gladbach, Germany). Cells were then washed, resuspended in the same buffer, and depleted from B and T cells on a Midi-Macs separation unit through a LD or LS column (Miltenyi Biotech). The depleted cells were then counted, washed and seeded (10^6/ml) in medium containing RPMI-1640 medium, L-glutamine, β-mercaptoethanol, 10% fetal calf serum (FCS), antibiotics (penicillin, streptomycin) and 20 ng/ml of mouse granulocyte-macrophage colony-stimulating factor (GM-CSF) (Peprotech, Rehovot, Israel). […]
Preparation of RNA, cDNA and Quantitative Real Time PCR (Q-PCR): RNA was prepared from cells using an RNeasy mini kit (Qiagen, Valencia, Calif.). […] All real time quantitative PCR (q-PCR) reactions were performed using LightCycler Taqman master (Roche Diagnostics, Mannheim, Germany) and the LightCycler (Roche). […]

MOG induced EAE = assay: MOG peptide-induced experimental autoimmune encephalomyelitis (EAE), clinical score; format: in vivo, mice; conditions: from 5 days before to 5 days after MOG 35-55 immunization (FIG. 7)
Protocol: Mice: Female 8-10 week old […] mice were purchased from Harlan Laboratories (Israel). EAE (experimental autoimmune encephalomyelitis) induction: Mice were immunized subcutaneously with an emulsion containing 1.5 mg/ml MOG peptide 35-55 ([…]) (Sigma-Aldrich, Rehovot, Israel) and 2.5 mg/ml complete Freund's adjuvant (CFA), 100 μl in each flank. Pertussis toxin (500 ng in 500 μl PBS) was administered intra-peritoneally immediately and 48 hours after immunization. For prevention of EAE, CI-302 or PBS was given orally once a day for 10 consecutive days beginning 5 days before immunization. The severity of EAE was assessed utilizing clinical scores determined as follows: 0=normal, 1=limp tail, 2=weakness of hind limbs, 3=hind leg paralysis, 4=hind and fore leg paralysis, 5=moribund or death

[2] = test system: collagen-induced arthritis; assay: Collagen-induced arthritis (CIA), arthritis score; format: in vivo, DBA/1 male mice; conditions: 0.4 mg/kg by gavage daily from day 22 to day 39, CIA mouse model (FIG. 9)
Protocol: Collagen-induced arthritis (CIA) induction: DBA/1 male mice were immunized to induce arthritis by a collagen injection containing complete Freund's adjuvant (CFA) in the base of the tail (day 0) and a booster shot in the flank (day 21). Mice were followed for arthritis development until day 39. Administration by gavage of the tested compounds and control substances began on day 22 and was carried out on a daily basis (6 times per week).
The severity of arthritis was assessed as follows:
Each paw is scored on a scale of 0-4 for the degree of swelling, erythema, and deformity of the joints (maximum score 16 per animal) as follows [Brackertz et al., 1977]:
0=normal 1=slight erythema and/or swelling of the ankle or wrist or toes 2=moderate erythema and/or swelling of the ankle or wrist 3=severe erythema and/or swelling of the ankle or wrist (or moderate in combination of all toes) 4=complete erythema and swelling of toes or fingers and ankle or wrist, and inability to bend the ankle or wrist

[3] = test system: pro-inflammatory chemokines and cytokines in spinal cords; assay: q-PCR for pro-inflammatory chemokines and cytokines in spinal cords of EAE mice; format: in vivo; conditions: 0.4 mg/kg oral, 28 days after immunization
Protocol: Preparation of RNA, cDNA and Quantitative Real Time PCR (Q-PCR): RNA was prepared from cells using an RNeasy mini kit (Qiagen, Valencia, Calif.). For cDNA preparation, 1 μg of RNA was combined with oligo-dT for 10 minutes at 70° C., and 1^St strand buffer, dithiothreitol (DTT), deoxynucleotides (dNTP) and super-script reverse transcriptase (SS-II) (Invitrogen, Carlsbad, Calif.) were then added for 50 minutes at 42° C. The reaction was ended by incubation for an additional 15 minutes at 70° C. All real time quantitative PCR (q-PCR) reactions were performed using LightCycler Taqman master (Roche Diagnostics, Mannheim, Germany) and the LightCycler (Roche). For tissue mRNA expression, total RNA was extracted from spinal cord using the RNeasy lipid tissue mini kit RNA. Ready sets of probe with primers for q-PCR were purchased from Applied Biosystems (Foster City, Calif.).
EAE (experimental autoimmune encephalomyelitis) induction: Mice were immunized subcutaneously with an emulsion containing 1.5 mg/ml MOG peptide 35-55 ([…]) (Sigma-Aldrich, Rehovot, Israel) and 2.5 mg/ml complete Freund's adjuvant (CFA), 100 μl in each flank. Pertussis toxin (500 ng in 500 μl PBS) was administered intra-peritoneally immediately and 48 hours after immunization. For prevention of EAE, CI-302 or PBS was given orally once a day for 10 consecutive days beginning 5 days before immunization.

IL-12/23 p40 [4] = assay: IL-12/23 p40 production by peptidoglycan-activated BMDCs (ELISA); format: cell-based, mouse; conditions: BMDCs activated with 10 μg/ml peptidoglycan
Protocol: Generation of bone-marrow derived dendritic cells (BMDC's): Bone-marrow was flushed out with cold RPMI-1640 medium from mice femur and tibia. A cell suspension was prepared and erythrocytes were removed using red blood cell (RBC) lysis buffer (Beit Haemek, Israel). Cells were washed in phosphate buffer saline (PBS) (Beit Haemek, Israel), and incubated at 4° C. for 15 minutes in buffer containing PBS and 0.5% bovine serum albumin (BSA) with mouse B220 and CD90 microbeads (Miltenyi biotech, Bergisch Gladbach, Germany). Cells were then washed, resuspended in the same buffer, and depleted from B and T cells on a Midi-Macs separation unit through a LD or LS column (Miltenyi Biotech). The depleted cells were then counted, washed and seeded (10^6/ml) in medium containing RPMI-1640 medium, L-glutamine, β-mercaptoethanol, 10% fetal calf serum (FCS), antibiotics (penicillin, streptomycin) and 20 ng/ml of mouse granulocyte-macrophage colony-stimulating factor (GM-CSF) (Peprotech, Rehovot, Israel). Medium was replaced every other day and cells were used for subsequent experiments on days 5-6 post culturing.
Cytokine analysis: For the detection of cytokine production, supernatants from 24-hour post-treatment BMDCs were tested with Duoset ELISA kits for mouse IL12/23 p40 (R&D systems, Minneapolis, Minn.). […]

human platelets = assay: Platelet aggregation assay; format: cell-based; conditions: human platelet-rich plasma, 5 minutes; CI-302 in escalating concentrations of up to 1 mM; PAF 0.125-0.25 μM (FIGS. 2-4)
Protocol: Platelet aggregation assay: Platelet-rich plasma was prepared from citrated whole human blood by centrifugation (200 g for 20 minutes). The final platelet concentration was adjusted to 2×10^8 platelets/ml with autologous plasma. CI-302 and PAF dissolved in PBS were added to induce platelet activation while the platelet sample was stirred at 1,000 rpm at 37° C. Aggregation was recorded for 5 minutes using an AggRAM 4-channel aggregometer (AggRAM aggregation Remote Analyzer Module; Helena Laboratories).

[5] = test system: tyrosine phosphorylation in peritoneal macrophages; assay: Western blot of phosphotyrosine in peritoneal macrophages; format: cell-based; conditions: thioglycolate-stimulated peritoneal macrophages, 20 μg/ml, 10 minutes (FIG. 10)
Protocol: Western blot: Thioglycolate-stimulated peritoneal macrophages were treated for 10 minutes with 20 μg/ml of CI-302. 20 μg/ml of phosphatidylcholine or solvent served as negative controls, whereas CI-201 served as a positive control. Whole cell lysates were resolved by SDS-PAGE on 10% Tris/HCl denaturing gel, transferred to nitrocellulose membranes and blotted with anti-phosphotyrosine antibody. Blotting with anti-ERK1/2 antibody served as a loading control.

## CCCCCCCCCCCCCCCCOC[C@H](COP(=O)([O-])OCC[N+](C)(C)C)OC(=O)CCC [CI-302, 1-hexadecyl-2-butyroyl-sn-glycero-3-phosphocholine]
IL-12/23 p40 [1]
  p40 mRNA expression: inhibited p40 mRNA expression considerably
MOG induced EAE; 0.04 mg/kg orally once a day
  protection against EAE development (mean clinical score): noticeable though milder protection
MOG induced EAE; 0.4 mg/kg orally once a day
  protection against EAE development (mean clinical score): close to complete protection
[2]
  arthritis severity (mean score): decreased arthritis severity throughout the study period
[3]; relative to PBS-treated group (FIG. 8A)
  p40 gene transcription in spinal cord: reduced
[3]; relative to PBS-treated group (FIG. 8B)
  p35 gene transcription in spinal cord: reduced
[3]; relative to PBS-treated group (FIG. 8C)
  CCL2 (MCP-1) transcription in spinal cord: reduced
[3]; relative to PBS-treated group (FIG. 8D)
  IFN-γ transcription in spinal cord: reduced
[3]; relative to PBS-treated group (FIG. 8E)
  TNF-α transcription in spinal cord: reduced
[3]; relative to control mice (FIG. 8F)
  CD4 mRNA levels in spinal cord: considerably lower
IL-12/23 p40 [4]; 1 hour pre-incubation, supernatants 24 hours, highest CI-302 concentration tested (FIG. 5A)
  maximal reduction of p40 production: 45%
IL-12/23 p40 [4]; escalating CI-302 concentrations, ELISA at 24 hours (FIG. 5A)
  production of p40 by activated BMDCs: significantly inhibited production of p40 by activated BMDCs in a dose-dependent manner
Human platelets
  platelet aggregation: no platelet aggregation was observed
[5]
  level of phosphotyrosine: strongly reduced the level of phosphotyrosine

## CCCCCCCCCCCCCCCCOC[C@H](COP(=O)([O-])OCC[N+](C)(C)C)OC(C)=O [PAF, 1-hexadecyl-2-acetoyl-sn-glycero-3-phosphocholine, reference compound]
Human platelets
  platelet aggregation: substantial platelet aggregation

## L-a-phosphatidylcholine [PC, reference compound]
IL-12/23 p40 [1]
  p40 mRNA expression: little or no effect

Source: patent US20110230450A1, “PLATELET-ACTIVATING FACTOR (PAF) ANALOGS AND USES THEREOF” (Vascular Biogenics Lts, priority 2007, published 2011)
